Measured values reported in US10716950B2, “Treatment of thalamocortical dysrhythmia” (priority 2012, dated 2020).
“Also recorded” adds a separate entry of the source. Like-named read-outs stand apart in the source and are kept apart here.

Legend:
[1] = tested on: conditions associated with thalamocortical dysrhythmia; experiment: TMS/Ketamine combination treatment of patients (Example 1)
Procedure: Thirty-five patients were treated with a combination of ketamine and TMS. […] For simplicity of presentation in Table 2, patients receiving treatment more than once a week are shown as receiving a single treatment for that week. Also, intervals are rounded to the nearest week.
Others received a priming TMS treatment prior to the combination treatment. Some patients received neither pretreatment nor priming, although most patients received one or the other. Since the priming treatment is less rigorous than several days of pretreatment, all patients receiving pretreatment were ultimately switched to priming or neither. Pretreatment and or priming treatment were administered based upon diagnosis and patient compliance.

depression = conditions: ketamine alone, cited from earlier work
[2] = tested on: obsessive-compulsive disorder (OCD); conditions: OCD patients infused with ketamine; compared with depression and CRPS; Pittenger et al. 2012; cited from earlier work
[3] = tested on: conditions associated with thalamocortical dysrhythmia; experiment: TLVES/Ketamine combination treatment of patients (Example 2); conditions: all three patients; tACS or tRNS 20 minutes; ketamine total dose 0.5-5.0 mg per kg infused over 15-50 minutes
[4] = patient B3, Unipolar Depression & ADD, ketamine combined with TMS
[5] = patient B6, Bipolar Depression, ketamine combined with TMS
[6] = patient B23, Fibromyalgia, PTSD, mixed connective tissue disease, ketamine combined with TMS
[7] = patient B26, Bipolar Disorder, poly-substance abuse, ketamine combined with TMS
[8] = patient C11, Tourette's and secondary depression, ketamine combined with TMS
[9] = patient D8, OCD & secondary depression, ketamine combined with TMS
[10] = patient D20, Depression & frontal lobe disorder, ketamine combined with TMS
[11] = patient H2, Bipolar Depression, ketamine combined with TMS
[12] = patient K10, CRPS & regulatory disorder of childhood, ketamine combined with TMS
[13] = patient N7, Multiple head injuries and depression, ketamine combined with TMS
[14] = patient N13, Bipolar Disorder & chronic neck and back pain, ketamine combined with TMS
[15] = patient N14, Unipolar Depression, ADD, alcohol abuse, concussion, ketamine combined with TMS
[16] = patient N30, Depression, fibromyalgia, back pain, ketamine combined with TMS
[17] = patient O34, ADHD, concussion, back pain, substance abuse, ketamine combined with TMS
[18] = patient Q9, Bipolar Depression, ketamine combined with TMS
[19] = patient R17, Childhood depression, PTSD, poly-substance abuse, ketamine combined with TMS
[20] = patient R32, OCD & secondary depression, poly-substance abuse, ketamine combined with TMS
[21] = patient S1, Generalized anxiety & secondary depression, ketamine combined with TMS
[22] = patient S36, Depression, panic attacks, ketamine combined with TMS
[23] = patient T15, Bipolar Depression, ketamine combined with TMS
[24] = patient T29, Bipolar Disorder, dormant poly-substance abuse, ketamine combined with TMS
[25] = patient W24, Depression, ketamine combined with TMS
[26] = patient Z4, Unipolar Depression & ADD, ketamine combined with TMS
[27] = patient Z27, Childhood onset bipolar disorder, ADD, RSD, ketamine combined with TMS
[28] = patient, Bipolar Disorder, poly-substance abuse, ketamine combined with TMS
[29] = patient, Depression & poly-substance abuse, ketamine combined with TMS
[30] = patient, Unipolar Depression & minor epilepsy, ketamine combined with TMS
[31] = patients having positive outcomes, ketamine combined with TMS

Question: For CNC1(c2ccccc2Cl)CCCCC1=O (racemic) [ketamine, (RS)-2-(2-Chlorophenyl)-2-(methylamino)cyclohexanone], which “Outcome of the patients that completed treatment” value ([1]; all of the 28 patients that completed treatment, of thirty-five treated, ketamine combined with TMS) is on record?
Answer: positive outcome

Question: And the Outcome [1, 4]?
Answer: entered graduate school, got out of abusive relationship

Question: And the “Overall Response” value [1, 4]?
Answer: excellent

Question: What about the Outcome [1, 5] of the same molecule?
Answer: entered graduate school, began to date for first time

Question: And the “Overall Response” value [1, 5]?
Answer: excellent

Question: What about the Outcome [1, 6] of the same molecule?
Answer: off pain medicine, calm, more active

Question: And the “Outcome: adverse effect” value [1, 6]?
Answer: experienced severe nausea

Question: What about the “Overall Response” value [1, 6] of the same molecule?
Answer: excellent

Question: And the Outcome [1, 7]?
Answer: returned to college, got married

Question: What about the “Overall Response” value [1, 7] of the same molecule?
Answer: excellent

Question: And the Outcome [1, 8]?
Answer: off of inappropriate medicines, calm, in school

Question: What about the “Overall Response” value [1, 8] of the same molecule?
Answer: good

Question: And the Outcome [1, 9]?
Answer: back to work and active family life

Question: And the “Overall Response” value [1, 9]?
Answer: good

Question: What about the Outcome [1, 10] of the same molecule?
Answer: depression lifted, apathy lifted, pace of thought improved

Question: And the “Overall Response” value [1, 10]?
Answer: excellent

Question: And the Outcome [1, 11]?
Answer: returned to home-life and active mothering

Question: And the “Overall Response” value [1, 11]?
Answer: good

Question: And the Outcome [1, 12]?
Answer: off of opioid narcotics, entered trade school, saved subject's life

Question: And the “Overall Response” value [1, 12]?
Answer: excellent

Question: What about the Outcome [1, 13] of the same molecule?
Answer: off of all opioid narcotics, back to church life

Question: What about the “Overall Response” value [1, 13] of the same molecule?
Answer: excellent

Question: What about the Outcome [1, 14] of the same molecule?
Answer: off of all opioid narcotics, calm, walking well

Question: What about the “Overall Response” value [1, 14] of the same molecule?
Answer: very good

Question: And the Outcome [1, 15]?
Answer: calm, repaired broken business & family life, sober

Question: What about the “Overall Response” value [1, 15] of the same molecule?
Answer: very good

Question: And the Outcome [1, 16]?
Answer: off opioid narcotics, not depressed, traveling

Question: And the “Overall Response” value [1, 16]?
Answer: excellent

Question: What about the Outcome [1, 17] of the same molecule?
Answer: did very well, significant other coaxed subject back to substance; also recorded: abuse

Question: What about the “Overall Response” value [1, 17] of the same molecule?
Answer: excellent

Question: What about the Outcome [1, 18] of the same molecule?
Answer: back to work, repaired broken marriage

Question: What about the “Overall Response” value [1, 18] of the same molecule?
Answer: excellent

Question: And the Outcome [1, 19]?
Answer: learned to read, entered college, sober

Question: What about the “Overall Response” value [1, 19] of the same molecule?
Answer: excellent

Question: What about the Outcome [1, 20] of the same molecule?
Answer: sober, calm, back to college

Question: What about the “Overall Response” value [1, 20] of the same molecule?
Answer: excellent

Question: What about the Outcome [1, 21] of the same molecule?
Answer: returned to college, sober

Question: What about the “Overall Response” value [1, 21] of the same molecule?
Answer: excellent

Question: What about the Outcome [1, 22] of the same molecule?
Answer: did very well, repaired broken marriage and family

Question: What about the “Overall Response” value [1, 22] of the same molecule?
Answer: excellent

Question: What about the Outcome [1, 23] of the same molecule?
Answer: back to church life and active family life

Question: What about the “Overall Response” value [1, 23] of the same molecule?
Answer: excellent

Question: What about the Outcome [1, 24] of the same molecule?
Answer: entered graduate school, running family business, still sober

Question: What about the “Overall Response” value [1, 24] of the same molecule?
Answer: excellent

Question: What about the Outcome [1, 25] of the same molecule?
Answer: back to work and active family life

Question: And the “Overall Response” value [1, 25]?
Answer: excellent

Question: And the Outcome [1, 26]?
Answer: no longer bedridden, left bad marriage

Question: What about the “Overall Response” value [1, 26] of the same molecule?
Answer: very good

Question: And the Outcome [1, 27]?
Answer: sober, calm, entered college and at work part-time

Question: What about the “Overall Response” value [1, 27] of the same molecule?
Answer: very good

Question: And the Outcome [1, 28]?
Answer: calm, still in early stage of treatment

Question: And the “Overall Response” value [1, 28]?
Answer: very good

Question: What about the Outcome [1, 29] of the same molecule?
Answer: sober, active with family business

Question: What about the “Overall Response” value [1, 29] of the same molecule?
Answer: excellent

Question: And the Outcome [1, 30]?
Answer: relapsed

Question: What about the “Overall Response” value [1, 30] of the same molecule?
Answer: good

Question: What about the Adverse side effects [1, 31] of the same molecule?
Answer: reduced adverse side effects

Question: What about the “Durability of the positive result” value [1, 31] of the same molecule?
Answer: more robust, i.e., long lasting, positive result; also recorded: lasting result

Question: What about the “Percentage of patients with positive outcome compared with success rate reported for TMS alone or ketamine alone” value ([1]; patients that completed treatment, ketamine combined with TMS) of the same molecule?
Answer: higher

Question: What about the “Response to previous TMS/ketamine treatment” value ([1]; three more frail, less robust patients later given TLVES/ketamine) of the same molecule?
Answer: significantly improved

Question: What about the “Lasting relief from suicidality or depression” value (depression) of the same molecule?
Answer: highly transitory

Question: What about the “Success rate in the treatment of depression” value (depression; dosages reportedly 5-15 times higher than with TMS) of the same molecule?
Answer: 60-70%

Question: And the “Lasting relief from suicidality or depression” value (depression; listed as Ketamine)?
Answer: does not, however, appear to provide lasting relief from suicidality or depression

Question: And the “Effectiveness in treating depression” value (depression; patients with bipolar disorder who have not responded to anti-depressants)?
Answer: effective

Question: What about the “Time to rapid antidepressant effect” value (depression; persons with major depressive disorder (and bipolar depression)) of the same molecule?
Answer: two

Question: And the “Benefit in OCD patients” value [2]?
Answer: rather more limited

Question: And the “Post-treatment fatigue compared with TMS/ketamine” value [3]?
Answer: less of the post-treatment fatigue

Question: What about the “Therapeutic benefit compared with TMS/ketamine” value [3] of the same molecule?
Answer: same therapeutic benefits as TMS/ketamine
